Source: ChEMBL document CHEMBL3822435, “Synthesis, antiproliferative and pro-apoptotic activity of 2-phenylindoles” (Bioorg Med Chem, 2016)
Active and inactive are the calls of the source. The calls are words filed in the database; no cut-off is given here.

Columns and labels:
[1] = tested on: MCF7; experiment: cells; settings: Homo sapiens, MCF7, 72 h
Description: Antiproliferative activity against ER-positive human MCF7 cells assessed as reduction in cell viability measured after 72 hrs by AlamarBlue assay

[2] = tested on: PBMC; experiment: Induction of apoptosis in human PBMCs assessed as apoptotic cells at 10 uM measured after 72 hrs by propidium iodide staining-based flow cytometric analysis (reference value: 1.5 +/- 0.6%); format: cell-based
[3] = tested on: MCF7; experiment: Induction of apoptosis in human MCF7 cells assessed as apoptotic cells at 10 uM measured after 72 hrs by propidium iodide staining-based flow cytometric analysis (reference value: 5.5 +/- 1.3%); format: functional
[4] = tested on: MCF7; experiment: Induction of apoptosis in human MCF7 cells assessed as accumulation at G2/M-phase at 10 uM measured after 72 hrs by propidium iodide staining-based flow cytometric analysis; format: functional, cell-based
[5] = molecular target: T1, Estrogen receptor (Homo sapiens, UniProt P03372)
T1 sequence (P03372 whole entry): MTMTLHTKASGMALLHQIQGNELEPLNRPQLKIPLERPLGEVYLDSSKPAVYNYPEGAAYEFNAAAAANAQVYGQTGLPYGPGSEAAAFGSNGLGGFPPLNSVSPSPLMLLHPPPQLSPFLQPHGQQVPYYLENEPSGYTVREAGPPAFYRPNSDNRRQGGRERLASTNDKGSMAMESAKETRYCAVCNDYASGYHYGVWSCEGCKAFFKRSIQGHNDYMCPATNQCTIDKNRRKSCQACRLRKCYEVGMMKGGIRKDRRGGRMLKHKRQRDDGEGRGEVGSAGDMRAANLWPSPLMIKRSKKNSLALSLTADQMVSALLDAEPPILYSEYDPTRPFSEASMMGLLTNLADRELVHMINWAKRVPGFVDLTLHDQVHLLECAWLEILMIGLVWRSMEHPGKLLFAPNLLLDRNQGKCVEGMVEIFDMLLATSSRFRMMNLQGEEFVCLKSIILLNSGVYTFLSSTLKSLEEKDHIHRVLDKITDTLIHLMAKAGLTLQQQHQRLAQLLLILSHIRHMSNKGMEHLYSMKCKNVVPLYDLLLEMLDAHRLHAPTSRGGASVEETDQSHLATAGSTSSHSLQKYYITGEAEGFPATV
Description: Inhibition of ER-alpha (unknown origin) by Lanthascreen-FRET assay

[6] = tested on: PBMC; experiment: Induction of apoptosis in human PBMCs assessed as accumulation at G2/M-phase at 10 uM measured after 72 hrs by propidium iodide staining-based flow cytometric analysis; format: cell-based
[7] = molecular target: Estrogen receptor beta (Homo sapiens, UniProt Q92731)
Estrogen receptor beta, sequence (Q92731 whole entry): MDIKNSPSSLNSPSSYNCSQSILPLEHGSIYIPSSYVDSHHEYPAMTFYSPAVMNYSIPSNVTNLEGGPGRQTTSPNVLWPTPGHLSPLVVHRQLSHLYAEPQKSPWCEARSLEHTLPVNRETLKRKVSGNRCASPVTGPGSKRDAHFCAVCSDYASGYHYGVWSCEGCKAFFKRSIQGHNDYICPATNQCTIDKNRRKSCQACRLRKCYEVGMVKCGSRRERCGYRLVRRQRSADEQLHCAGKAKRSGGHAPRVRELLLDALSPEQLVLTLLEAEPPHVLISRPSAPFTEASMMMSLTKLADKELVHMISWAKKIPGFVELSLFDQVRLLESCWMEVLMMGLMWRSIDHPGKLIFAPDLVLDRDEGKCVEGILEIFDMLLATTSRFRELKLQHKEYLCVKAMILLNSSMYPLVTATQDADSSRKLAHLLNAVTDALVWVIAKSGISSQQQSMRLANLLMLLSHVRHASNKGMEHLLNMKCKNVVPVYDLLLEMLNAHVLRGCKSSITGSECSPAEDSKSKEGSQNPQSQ
Description: Inhibition of ER-beta (unknown origin) by Lanthascreen-FRET assay

Structure (SMILES): CCCCn1c(-c2ccc(O)cc2)c(C)c2cc(O)ccc21
- IC50 [1]: 34 µM

Structure (SMILES): Cc1c(-c2ccc(O)cc2)n(Cc2ccc(O)cc2)c2ccc(O)cc12
- IC50 [1]: 38.9 µM

Structure (SMILES): COc1ccc(/C=C(/C(=O)N(C)CCCCCCCCn2c(-c3ccc(O)cc3)c(C)c3cc(O)ccc32)c2cc(OC)c(OC)c(OC)c2)cc1O
- IC50 [1]: 2.95 µM

Structure (SMILES): COc1ccc(-c2c(C)c3cc(OC)ccc3n2CCCCN(C)C(=O)/C(=C/c2ccc(OC)c(O)c2)c2cc(OC)c(OC)c(OC)c2)cc1
- IC50 [1]: 81.3 µM

Structure (SMILES): Cc1c(-c2ccc(O)cc2)n(CCCCCCn2c(-c3ccc(O)cc3)c(C)c3cc(O)ccc32)c2ccc(O)cc12
- IC50 [1]: 8.16 µM

Structure (SMILES): CNCCCCCCCCCCCCn1c(-c2ccc(O)cc2)c(C)c2cc(O)ccc21
- Activity [2]: Non-toxic
- Activity [3]: 7.5%
- IC50 [1]: 33 µM
- Activity [4]: inactive
- IC50 [5]: 0.38 µM
- Activity [6]: Non-toxic
- IC50 [7]: 1.66 µM

Structure (SMILES): COc1ccc(/C=C(/C(=O)N(C)CCCCCCCCCCCCn2c(-c3ccc(O)cc3)c(C)c3cc(O)ccc32)c2cc(OC)c(OC)c(OC)c2)cc1O
- Activity [2]: Non-toxic
- Activity [3]: 42.1%
- IC50 [1]: 1.86 µM
- Activity [4]: inactive
- IC50 [5]: 0.574 µM
- Activity [6]: Non-toxic
- IC50 [7]: 0.155 µM

Structure (SMILES): Cc1c(-c2ccc(O)cc2)n(CCO)c2ccc(O)cc12
- IC50 [1]: 17.7 µM

Structure (SMILES): Cc1c(-c2ccc(O)cc2)n(Cc2ccc(Cn3c(-c4ccc(O)cc4)c(C)c4cc(O)ccc43)cc2)c2ccc(O)cc12
- IC50 [1]: 3.5 µM

Structure (SMILES): Cc1c(-c2ccc(O)cc2)n(CCCCCCCCCCCCn2c(-c3ccc(O)cc3)c(C)c3cc(O)ccc32)c2ccc(O)cc12
- IC50 [1]: 5.24 µM

Structure (SMILES): Cc1c(-c2ccc(O)cc2)n(Cc2ccc(F)cc2)c2ccc(O)cc12
- IC50 [1]: 41 µM

Structure (SMILES): CNCCCCCCn1c(-c2ccc(O)cc2)c(C)c2cc(O)ccc21
- IC50 [1]: 41.7 µM

Structure (SMILES): CNCCCCCn1c(-c2ccc(O)cc2)c(C)c2cc(O)ccc21
- IC50 [1]: 49 µM

Structure (SMILES): Cc1c(-c2ccc(O)cc2)n(CCCCCn2c(-c3ccc(O)cc3)c(C)c3cc(O)ccc32)c2ccc(O)cc12
- IC50 [1]: 4.16 µM

Structure (SMILES): COc1ccc(/C=C(/C(=O)N(C)CCCCCCn2c(-c3ccc(O)cc3)c(C)c3cc(O)ccc32)c2cc(OC)c(OC)c(OC)c2)cc1O
- IC50 [1]: 2.34 µM

Structure (SMILES): COc1ccc(/C=C(/C(=O)N(C)CCCCn2c(-c3ccc(O)cc3)c(C)c3cc(O)ccc32)c2cc(OC)c(OC)c(OC)c2)cc1O
- IC50 [1]: 1.99 µM

Structure (SMILES): CNCCCCCCCCn1c(-c2ccc(O)cc2)c(C)c2cc(O)ccc21
- IC50 [1]: 38.9 µM

Structure (SMILES): Cc1c(-c2ccc(O)cc2)n(CCCCCCCCn2c(-c3ccc(O)cc3)c(C)c3cc(O)ccc32)c2ccc(O)cc12
- IC50 [1]: 6.6 µM

Structure (SMILES): Cc1c(-c2ccc(O)cc2)n(CCCCn2c(-c3ccc(O)cc3)c(C)c3cc(O)ccc32)c2ccc(O)cc12
- Activity [2]: 16.7%
- Activity [3]: 54.7%
- IC50 [1]: 2.75 µM
- Activity [4]: inactive
- IC50 [5]: 0.436 µM
- Activity [6]: Non-toxic
- IC50 [7]: 0.041 µM

Structure (SMILES): CNCCCCn1c(-c2ccc(O)cc2)c(C)c2cc(O)ccc21
- IC50 [1]: 40.7 µM

Structure (SMILES): COc1ccc(/C=C(/C(=O)N(C)CCCCCn2c(-c3ccc(O)cc3)c(C)c3cc(O)ccc32)c2cc(OC)c(OC)c(OC)c2)cc1O
- IC50 [1]: 2.93 µM

Structure (SMILES): COc1cc(Cn2c(-c3ccc(O)cc3)c(C)c3cc(O)ccc32)cc(OC)c1OC
- IC50 [1]: 332 µM
